# Results taken from patent publication US12310975B2, “Modulators of BCL6 proteolysis and associated methods of use” (Arvinas Operations, Inc., priority 2019, dated 2025).
# What was measured:
# BCL6 [1] = molecular target: T1, BCL6 (Homo sapiens (Human), UniProt P41182); assay: BCL6 TR-FRET assay (BCL6-Avitag-Biotin / BCoR-Cy5 peptide); format: binding; conditions: read-out: IC50
# Procedure, shortened: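 After 30 min room-temperature preincubation of compound titrations with 2 nM biotinylated BCL6-Avitag, 100 nM Cy5-labelled BCoR peptide plus 2 nM Eu-streptavidin were added and TR-FRET read 2 h later. HEPES pH 7.5/125 mM NaCl buffer with Triton X, glutathione (or DTT) and BSA.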
# BCL6 [2] = molecular target: T1, BCL6; assay: Immunofluorescence high content imaging of BCL6 degradation in T47D cells; format: cell-based; conditions: T47D
# Procedure, shortened: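 Seed T47D in RPMI1640-10% FBS to reach ~70-90% confluence at endpoint; add degrader next day (11-point 3-fold series, top 0.1 or 1 μM final) for 3 days. Then fix, permeabilize, stain BCL6 with nuclear Hoechst, and image.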
IC50 (BCL6 [1]) [nM],Dmax (BCL6 [2]) [%],SMILES
≥ 100,≥ 70,"CNC(=O)COc1cc2cc(Nc3nc(N4CCOCC4)ncc3Cl)ccc2n(CCOc2ccc3c(c2)C(=O)N(C2CCC(=O)NC2=O)C3=O)c1=O (centres unmarked) [compound 475, 2-[(6-{[5-chloro-2-(morpholin-4-yl)pyrimidin-4-yl]amino}-1-(2-{[2-(2,6-dioxopiperidin-3-yl)-1,3-dioxo-2,3-dihydro-1H-isoindol-5-yl]oxy}ethyl)-2-oxo-1,2-dihydroquinolin-3-yl)oxy]-N-methylacetamide]"
10 to 50,< 50,"CNC(=O)COc1cc2cc(Nc3nc(N4CCC(C5(N6CCC(c7cc(OC)cc(C(=O)NC8CCC(=O)NC8=O)c7F)CC6)CC5)CC4)ncc3Cl)ccc2n(C)c1=O (centres unmarked) [compound 480, 3-[1-(1-{1-[5-chloro-4-({1-methyl-3-[(methylcarbamoyl)methoxy]-2-oxo-1,2-dihydroquinolin-6-yl}amino)pyrimidin-2-yl]piperidin-4-yl}cyclopropyl)piperidin-4-yl]-N-(2,6-dioxopiperidin-3-yl)-2-fluoro-5-methoxybenzamide]"
< 10,50 to 70,"CNC(=O)COc1cc2cc(Nc3nc(N4CCN(CC5CCN(c6cccc7c6C(=O)N(C6CCC(=O)NC6=O)C7=O)CC5)CC4)ncc3Cl)ccc2n(CC2COC2)c1=O (centres unmarked) [compound 485, 2-{[6-({5-chloro-2-[4-({1-[2-(2,6-dioxopiperidin-3-yl)-1,3-dioxo-2,3-dihydro-1H-isoindol-4-yl]piperidin-4-yl}methyl)piperazin-1-yl]pyrimidin-4-yl}amino)-1-[(oxetan-3-yl)methyl]-2-oxo-1,2-dihydroquinolin-3-yl]oxy}-N-methylacetamide]"
< 10,50 to 70,"CNC(=O)COc1cc2cc(Nc3nc(N4CCC(CN5CCC6(CC5)CCN(c5ccc7c(c5)C(=O)N(C5CCC(=O)NC5=O)C7=O)C6)CC4)ncc3Cl)ccc2n(C(C)C)c1=O (centres unmarked) [compound 489, 2-{[6-({5-chloro-2-[4-({2-[2-(2,6-dioxopiperidin-3-yl)-1,3-dioxo-2,3-dihydro-1H-isoindol-5-yl]-2,8-diazaspiro[4.5]decan-8-yl}methyl)piperidin-1-yl]pyrimidin-4-yl}amino)-2-oxo-1-(propan-2-yl)-1,2-dihydroquinolin-3-yl]oxy}-N-methylacetamide]"
< 10,50 to 70,"CNC(=O)COc1cc2cc(Nc3nc(N4CCC5(CCN(CC6CCN(c7ccc8c(c7)C(=O)N(C7CCC(=O)NC7=O)C8=O)CC6)CC5)C4)ncc3Cl)ccc2n(C(C)C)c1=O (centres unmarked) [compound 490, 2-{[6-({5-chloro-2-[8-({1-[2-(2,6-dioxopiperidin-3-yl)-1,3-dioxo-2,3-dihydro-1H-isoindol-5-yl]piperidin-4-yl}methyl)-2,8-diazaspiro[4.5]decan-2-yl]pyrimidin-4-yl}amino)-2-oxo-1-(propan-2-yl)-1,2-dihydroquinolin-3-yl]oxy}-N-methylacetamide]"
50 to 100,50 to 70,"Cn1c(=O)n(CCC(C)(C)O)c2cc(Nc3nc(N4CCC(CN5CCN(c6cccc7c6C(=O)N(C6CCC(=O)NC6=O)C7=O)CC5)CC4)ncc3Cl)ccc21 (centres unmarked) [compound 492, 4-(4-{[1-(5-chloro-4-{[3-(3-hydroxy-3-methylbutyl)-1-methyl-2-oxo-2,3-dihydro-1H-1,3-benzodiazol-5-yl]amino}pyrimidin-2-yl)piperidin-4-yl]methyl}piperazin-1-yl)-2-(2,6-dioxopiperidin-3-yl)-2,3-dihydro-1H-isoindole-1,3-dione]"

# More lines, now with the values behind:
SMILES,IC50 (BCL6 [1]) [nM],Dmax (BCL6 [2]) [%]
"CNC(=O)COc1cc2cc(Nc3nc(N4CCN(CC5CCN(c6cc(OC)cc(C(=O)NC7CCC(=O)NC7=O)c6F)CC5)CC4)ncc3Cl)ccc2n(C(C)C)c1=O (centres unmarked) [compound 473, 3-[4-({4-[5-chloro-4-({3-[(methylcarbamoyl)methoxy]-2-oxo-1-(propan-2-yl)-1,2-dihydroquinolin-6-yl}amino)pyrimidin-2-yl]piperazin-1-yl}methyl)piperidin-1-yl]-N-(2,6-dioxopiperidin-3-yl)-2-fluoro-5-methoxybenzamide]",< 10,50 to 70
"CNC(=O)COc1cc2cc(Nc3nc(N4CCOCC4)ncc3Cl)ccc2n(CCCOc2ccc3c(c2)C(=O)N(C2CCC(=O)NC2=O)C3=O)c1=O (centres unmarked) [compound 474, 2-[(6-{[5-chloro-2-(morpholin-4-yl)pyrimidin-4-yl]amino}-1-(3-{[2-(2,6-dioxopiperidin-3-yl)-1,3-dioxo-2,3-dihydro-1H-isoindol-5-yl]oxy}propyl)-2-oxo-1,2-dihydroquinolin-3-yl)oxy]-N-methylacetamide]",50 to 100,< 50
"CNC(=O)COc1cc2cc(Nc3nc(N4CCC(O[C@H]5C[C@@H](COc6cccc7c6C(=O)N(C6CCC(=O)NC6=O)C7=O)N(C)C5)CC4)ncc3Cl)ccc2n(C(C)C)c1=O (stereo partly drawn) [compound 476, 2-[(6-{[5-chloro-2-(4-{[(3S,5S)-5-({[2-(2,6-dioxopiperidin-3-yl)-1,3-dioxo-2,3-dihydro-1H-isoindol-4-yl]oxy}methyl)-1-methylpyrrolidin-3-yl]oxy}piperidin-1-yl)pyrimidin-4-yl]amino}-2-oxo-1-(propan-2-yl)-1,2-dihydroquinolin-3-yl)oxy]-N-methylacetamide]",10 to 50,< 50
"CNC(=O)COc1cc2cc(Nc3nc(N4CCC(O[C@H]5C[C@@H](Oc6cccc7c6C(=O)N(C6CCC(=O)NC6=O)C7=O)CN(C)C5)CC4)ncc3Cl)ccc2n(C(C)C)c1=O (stereo partly drawn) [compound 477, 2-[(6-{[5-chloro-2-(4-{[(3S,5R)-5-{[2-(2,6-dioxopiperidin-3-yl)-1,3-dioxo-2,3-dihydro-1H-isoindol-4-yl]oxy}-1-methylpiperidin-3-yl]oxy}piperidin-1-yl)pyrimidin-4-yl]amino}-2-oxo-1-(propan-2-yl)-1,2-dihydroquinolin-3-yl)oxy]-N-methylacetamide]",10 to 50,< 50
"CNC(=O)COc1cc2cc(Nc3nc(N4CCN(C(C)(C)C5CCN(c6c(OC)ccc(C(=O)NC7CCC(=O)NC7=O)c6F)CC5)CC4)ncc3Cl)ccc2n(C)c1=O (centres unmarked) [compound 481, 3-[4-(2-{4-[5-chloro-4-({1-methyl-3-[(methylcarbamoyl)methoxy]-2-oxo-1,2-dihydroquinolin-6-yl}amino)pyrimidin-2-yl]piperazin-1-yl}propan-2-yl)piperidin-1-yl]-N-(2,6-dioxopiperidin-3-yl)-2-fluoro-4-methoxybenzamide]",< 10,≥ 70
"CNC(=O)COc1cc2cc(Nc3nc(N4CCC5(CC4)CC(CN4CCN(c6ccc7c(c6)C(=O)N(C6CCC(=O)NC6=O)C7=O)CC4)C5)ncc3Cl)ccc2n(C(C)C)c1=O (centres unmarked) [compound 483, 2-{[6-({5-chloro-2-[2-({4-[2-(2,6-dioxopiperidin-3-yl)-1,3-dioxo-2,3-dihydro-1H-isoindol-5-yl]piperazin-1-yl}methyl)-7-azaspiro[3.5]nonan-7-yl]pyrimidin-4-yl}amino)-2-oxo-1-(propan-2-yl)-1,2-dihydroquinolin-3-yl]oxy}-N-methylacetamide]",< 10,50 to 70
"CNC(=O)COc1cc2cc(Nc3nc(N4CCC5(CC4)CC(CN4CCN(c6cccc7c6C(=O)N(C6CCC(=O)NC6=O)C7=O)CC4)C5)ncc3Cl)ccc2n(C(C)C)c1=O (centres unmarked) [compound 484, 2-{[6-({5-chloro-2-[2-({4-[2-(2,6-dioxopiperidin-3-yl)-1,3-dioxo-2,3-dihydro-1H-isoindol-4-yl]piperazin-1-yl}methyl)-7-azaspiro[3.5]nonan-7-yl]pyrimidin-4-yl}amino)-2-oxo-1-(propan-2-yl)-1,2-dihydroquinolin-3-yl]oxy}-N-methylacetamide]",< 10,50 to 70
"CNC(=O)COc1cc2cc(Nc3nc(N4CCC(C5(N6CCC(c7ccc8c(c7)C(=O)N(C7CCC(=O)NC7=O)C8=O)CC6)CC5)CC4)ncc3Cl)ccc2n(C(C)C)c1=O (centres unmarked) [compound 488, 2-{[6-({5-chloro-2-[4-(1-{4-[2-(2,6-dioxopiperidin-3-yl)-1,3-dioxo-2,3-dihydro-1H-isoindol-5-yl]piperidin-1-yl}cyclopropyl)piperidin-1-yl]pyrimidin-4-yl}amino)-2-oxo-1-(propan-2-yl)-1,2-dihydroquinolin-3-yl]oxy}-N-methylacetamide]",< 10,50 to 70
"CNC(=O)COc1cc2cc(Nc3nc(N4CCC[C@H](COc5cccc6c5C(=O)N(C5CCC(=O)NC5=O)C6=O)C4)ncc3Cl)ccc2n(CC2COC2)c1=O (stereo partly drawn) [compound 491, 2-{[6-({5-chloro-2-[(3S)-3-({[2-(2,6-dioxopiperidin-3-yl)-1,3-dioxo-2,3-dihydro-1H-isoindol-4-yl]oxy}methyl)piperidin-1-yl]pyrimidin-4-yl}amino)-1-[(oxetan-3-yl)methyl]-2-oxo-1,2-dihydroquinolin-3-yl]oxy}-N-methylacetamide]",≥ 100,≥ 70
"Cn1c(=O)n(CCC(C)(C)O)c2cc(Nc3nc(N4CCC(OC5CC6(CCN(c7cccc8c7C(=O)N(C7CCC(=O)NC7=O)C8=O)CC6)C5)CC4)ncc3Cl)ccc21 (centres unmarked) [compound 493, 4-(2-{[1-(5-chloro-4-{[3-(3-hydroxy-3-methylbutyl)-1-methyl-2-oxo-2,3-dihydro-1H-1,3-benzodiazol-5-yl]amino}pyrimidin-2-yl)piperidin-4-yl]oxy}-7-azaspiro[3.5]nonan-7-yl)-2-(2,6-dioxopiperidin-3-yl)-2,3-dihydro-1H-isoindole-1,3-dione]",10 to 50,< 50
